Measured values: PMC7729925, “Selective hepatitis B and D virus entry inhibitors from the group of pentacyclic lupane-type betulin-derived triterpenoids” (Scientific Reports, 2020)

Legend:
NTCP [1] = target: T1, NTCP (Homo sapiens, UniProt Q14973); experiment: [3H]preS1 (myr-preS1_2-48 lipopeptide) binding inhibition in NTCP-HEK293 cells; details: for IC50: NTCP-HEK293 cells; for Selectivity index: ratio of mean IC50 [3H]TC transport inhibition / IC50 [3H]preS1 binding inhibition
T1 construct: expressed in transfected cells
T1 sequence (Q14973 1-349): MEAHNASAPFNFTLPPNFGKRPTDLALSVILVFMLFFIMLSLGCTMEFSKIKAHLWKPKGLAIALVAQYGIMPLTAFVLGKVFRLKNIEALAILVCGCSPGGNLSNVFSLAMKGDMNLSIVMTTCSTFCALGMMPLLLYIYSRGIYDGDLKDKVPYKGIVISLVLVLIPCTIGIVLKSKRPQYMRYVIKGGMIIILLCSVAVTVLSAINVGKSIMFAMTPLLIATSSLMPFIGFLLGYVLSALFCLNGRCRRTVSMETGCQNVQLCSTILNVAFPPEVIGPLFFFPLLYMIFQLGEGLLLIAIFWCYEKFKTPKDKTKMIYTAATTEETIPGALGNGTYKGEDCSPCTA
Method: (§1) The major goal of the present study was to analyze in parallel the effect of inhibitors on both, bile acid transport via NTCP and myr-preS1_2-48 lipopeptide binding to NTCP in a cell culture system. […] NTCP-HEK293 cells were seeded onto 96-well plates and were incubated with tetracycline in order to induce expression of the human NTCP protein. […] Experiments were performed with solvent alone (set to 100%) and with increasing concentrations of the indicated inhibitors. […] Half maximal inhibitory concentrations (IC50) were calculated by nonlinear regression analysis using the equation log(inhibitor) versus response (GraphPad Prism). […] Data represent means ± SD of quadruplicate determinations of representative experiments. […] In parallel, [^3H]preS1 peptide binding experiments were performed with a tritium-labelled myr-preS1_2-48 lipopeptide -HBV subgenotype D3- that was purchased from Pharmaron (120 Ci/mmol, 1 mCi/ml, Cardiff, UK). […] Experiments were stopped after 10 min by two-times washing with ice-cold PBS. For 0% uptake/binding control, the NTCP-HEK293 cells were not induced with tetracycline (-tet). […] Transport rates and [^3H]preS1 binding were determined in counts per minute (cpm). […] IC50 values were calculated from quadruplicate determinations by GraphPad Prism 6 (GraphPad, San Diego, CA, USA).

NTCP [2] = target: T1, NTCP; experiment: [3H]TC transport (bile acid uptake) inhibition in NTCP-HEK293 cells; type: cell-based
Method: as §1

[3] = IC50 ([3H]preS1 binding), 95% confidence interval, inhibition of 5 nM [3H]preS1 binding, 10 min, 37 °C
[4] = 95% confidence interval, inhibition of 1 µM [3H]TC uptake, NTCP-HEK293 cells, 10 min, 37 °C, read-out: IC50 ([3H]TC uptake)
[5] = 95% confidence interval, inhibition of 5 nM [3H]preS1 binding, 10 min, 37 °C, read-out: IC50 ([3H]preS1 binding)
[6] = mean IC50, 5 nM [3H]preS1, standard pH 7.4, read-out: IC50 [3H]preS1 binding inhibition

SMILES	IC50 (NTCP [2]; [4])	IC50 (NTCP [1]; [5])	IC50 (NTCP [1]; [6])	Selectivity index (NTCP [1])	further results
C=C(C)[C@@H]1CC[C@]2(C)CC[C@]3(C)[C@H](CC[C@@H]4[C@@]5(C)CC[C@H](O)C(C)(C)[C@@H]5CC[C@]43C)[C@@H]12 [Compound 3, Lupeol]	> 1000 µM				IC50 (NTCP [1]; [3]): 26.9 to 97.9 µM; IC50 (NTCP [2]): > 1000 µM
C=C(C)[C@@H]1CC[C@]2(C(=O)OC)CC[C@]3(C)[C@H](CC[C@@H]4[C@@]5(C)CC[C@H](O)C(C)(C)[C@@H]5CC[C@]43C)[C@@H]12 [Compound 5, Methyl betulinate]					IC50 (NTCP [1]; [3]): 12.7 to 83.5 µM; IC50 (NTCP [2]; read-out: IC50 ([3H]TC uptake)): 47.1 to 100 µM
C=C(C)C1CCC2(C=NO)CCC3(C)C(CCC4C5(C)CCC(O)C(C)(C)C5CCC43C)C12 (stereo not drawn) [Compound 6, Betulinaldehyde oxime]	360 to 759 µM	6.61 to 18.3 µM	11 µM	48	
C=C(C)[C@@H]1CC[C@]2(COC(=O)CBr)CC[C@]3(C)[C@H](CC[C@@H]4[C@@]5(C)CC[C@H](O)C(C)(C)[C@@H]5CC[C@]43C)[C@@H]12 [Compound 7, 28-O-(Bromoacetyl)betulin]	63.5 to 126 µM	5.28 to 11.1 µM		11	
C=C(C)[C@@H]1CC[C@]2(COC(=O)CCC(=O)O)CC[C@]3(C)[C@H](CC[C@@H]4[C@@]5(C)CC[C@H](O)C(C)(C)[C@@H]5CC[C@]43C)[C@@H]12 [Compound 8, 28-O-Succinoylbetulin]	5.35 to 10.6 µM	1.61 to 4.11 µM	2 to 3 µM	3	IC50 [3H]preS1 binding inhibition at pH 5.5 versus pH 7.4 (NTCP [1]; pH lowered from 7.4 to 5.5): did not change; IC50 (NTCP [2]; pH shift experiment, pH 5.5 (DMEM acidified with HCl), read-out: IC50 [3H]TC uptake inhibition at pH 5.5): 200 µM; IC50 (NTCP [2]; pH shift experiment, pH 7.4, read-out: IC50 [3H]TC uptake inhibition at pH 7.4): 8 µM
C=C(C)[C@@H]1CC[C@]2(COC(=O)CCC(=O)O)CC[C@]3(C)[C@H](CC[C@@H]4[C@@]5(C)CC[C@H](OC(=O)CCC(=O)O)C(C)(C)[C@@H]5CC[C@]43C)[C@@H]12 [Compound 9, 3,28-Di-O-succinoylbetulin]	3.11 to 5.02 µM	2.94 to 10.1 µM	< 10 µM	1	
C=C(C)[C@@H]1CC[C@]2(COC(=O)CC(C)(C)CC(=O)O)CC[C@]3(C)[C@H](CC[C@@H]4[C@@]5(C)CC[C@H](O)C(C)(C)[C@@H]5CC[C@]43C)[C@@H]12 [Compound 10, 28-O-(3,3-Dimethylglutaroyl)betulin]	3 to 5.91 µM	2.48 to 7.02 µM	< 10 µM	1	
C=C(C)[C@@H]1CC[C@]2(C(=O)O)CC[C@]3(C)[C@H](CC[C@@H]4[C@@]5(C)CC[C@H](OC(=O)CC(C)(C)CC(=O)O)C(C)(C)[C@@H]5CC[C@]43C)[C@@H]12 [Compound 11, 3-O-(3,3-Dimethylglutaroyl)betulinic acid]	3.08 to 4.53 µM	3 to 5.21 µM		1	
C=C(C)[C@@H]1CC[C@]2(COC(=O)CC(C)(C)CC(=O)O)CC[C@]3(C)[C@H](CC[C@@H]4[C@@]5(C)CC[C@H](OC(=O)CC(C)(C)CC(=O)O)C(C)(C)[C@@H]5CC[C@]43C)[C@@H]12 [Compound 12, 3,28-Di-O-(3,3-dimethylglutaroyl)betulin]	4.17 to 10.7 µM	4.97 to 10.1 µM		1	
C=C(C)[C@@H]1CC[C@]2(COC3CCCCO3)CC[C@]3(C)[C@H](CC[C@@H]4[C@@]5(C)CC[C@H](O)C(C)(C)[C@@H]5CC[C@]43C)[C@@H]12 (stereo partly drawn) [Compound 13, 28-(Tetrahydro-2H-pyran-2-yl)betulin]	116 to 628 µM	9.34 to 19.5 µM	11 to 50 µM	19	
C=C(C)[C@@H]1CC[C@]2(C=O)CC[C@]3(C)[C@H](CC[C@@H]4[C@@]5(C)CCC(=O)C(C)(C)[C@@H]5CC[C@]43C)[C@@H]12 [Compound 18, Betulonaldehyde]	88.5 to 175 µM				
CC1(COc2ccc(CC3SC(=O)NC3=O)cc2)CCCCC1 (stereo not drawn) [ciglitazone, reference compound]			1.3 µM		
